According to patent US8980848B2, “Flavonoid dimers and their use” (The Hong Kong Polytechnic University, priority 2010, dated 2015):

Columns and labels:
[1] = Tumor cell line cytotoxicity of flavonoid dimers, LCC6; assay type: cell-based, human; settings: human, IC50 of compound alone
Method: (§1) (b) Tumor Cell Line Cytotoxicity. The tumor cytotoxicity assays of flavonoid dimers were performed against LCC6, LCC6MDR and L929 cell lines. […] In brief, LCC6, LCC6MDR and L929 cells were seeded into 96-well flat bottom microtiter plate at 1×10^4 cells per well in a final volume of 100 μL media, respectively. A graded dose of flavonoid dimers was added into wells. The plate was incubated at 37° C. for 72 hrs at the atmosphere 5% CO2 in the air. The % of survivors was determined.

Pgp (LCC6MDR cells) = Pgp (LCC6MDR cells) (Homo sapiens, UniProt P08183); test: Cell proliferation assay: Pgp-modulating activity, reversal of anticancer drug resistance in LCC6MDR cells; settings: for RF (Relative Fold), cpd at 0.5 μM: RF = (IC50 without modulator)/(IC50 with 0.5 μM modulator); for RF (Relative Fold), cpd at 0.5 μM / RF (Relative Fold), cpd at 1 μM: paclitaxel; for RF (Relative Fold), cpd at 0.5 μM / RF (Relative Fold), cpd at 1 μM / EC50: LCC6MDR; for RF (Relative Fold), cpd at 1 μM: RF = (IC50 without modulator)/(IC50 with 1.0 μM modulator); for EC50: EC50 of compounds for reversing anticancer drug resistance (nM); for Therapeutic index: IC50 of compounds for L929/EC50 of compounds for lowering paclitaxel drug resistance
Method: Cell Proliferation Assay. 6,000 cells of LCC6 or LCC6MDR and anticancer drugs (paclitaxel, vinblastine, vincristine, doxorubicin and mitoxantrone) were mixed with or without modulators to a final volume of 200 μL in each well of 96-well plates. […] The plates were then incubated for 5 days at 37° C. […] IC50 values were calculated from the dose-response curves of MTS assays (Prism 4.0).

[2] = Tumor cell line cytotoxicity of flavonoid dimers, LCC6MDR; assay type: cell-based, human; settings: human, IC50 of compound alone
Method: as §1

[3] = Cytotoxicity of flavonoid dimers, L929 mouse fibroblast; assay type: cell-based; settings: mouse, IC50 of compound alone, 72 hrs, mouse fibroblast
Method: as §1

Chain of Pgp (LCC6MDR cells) (P08183 whole entry): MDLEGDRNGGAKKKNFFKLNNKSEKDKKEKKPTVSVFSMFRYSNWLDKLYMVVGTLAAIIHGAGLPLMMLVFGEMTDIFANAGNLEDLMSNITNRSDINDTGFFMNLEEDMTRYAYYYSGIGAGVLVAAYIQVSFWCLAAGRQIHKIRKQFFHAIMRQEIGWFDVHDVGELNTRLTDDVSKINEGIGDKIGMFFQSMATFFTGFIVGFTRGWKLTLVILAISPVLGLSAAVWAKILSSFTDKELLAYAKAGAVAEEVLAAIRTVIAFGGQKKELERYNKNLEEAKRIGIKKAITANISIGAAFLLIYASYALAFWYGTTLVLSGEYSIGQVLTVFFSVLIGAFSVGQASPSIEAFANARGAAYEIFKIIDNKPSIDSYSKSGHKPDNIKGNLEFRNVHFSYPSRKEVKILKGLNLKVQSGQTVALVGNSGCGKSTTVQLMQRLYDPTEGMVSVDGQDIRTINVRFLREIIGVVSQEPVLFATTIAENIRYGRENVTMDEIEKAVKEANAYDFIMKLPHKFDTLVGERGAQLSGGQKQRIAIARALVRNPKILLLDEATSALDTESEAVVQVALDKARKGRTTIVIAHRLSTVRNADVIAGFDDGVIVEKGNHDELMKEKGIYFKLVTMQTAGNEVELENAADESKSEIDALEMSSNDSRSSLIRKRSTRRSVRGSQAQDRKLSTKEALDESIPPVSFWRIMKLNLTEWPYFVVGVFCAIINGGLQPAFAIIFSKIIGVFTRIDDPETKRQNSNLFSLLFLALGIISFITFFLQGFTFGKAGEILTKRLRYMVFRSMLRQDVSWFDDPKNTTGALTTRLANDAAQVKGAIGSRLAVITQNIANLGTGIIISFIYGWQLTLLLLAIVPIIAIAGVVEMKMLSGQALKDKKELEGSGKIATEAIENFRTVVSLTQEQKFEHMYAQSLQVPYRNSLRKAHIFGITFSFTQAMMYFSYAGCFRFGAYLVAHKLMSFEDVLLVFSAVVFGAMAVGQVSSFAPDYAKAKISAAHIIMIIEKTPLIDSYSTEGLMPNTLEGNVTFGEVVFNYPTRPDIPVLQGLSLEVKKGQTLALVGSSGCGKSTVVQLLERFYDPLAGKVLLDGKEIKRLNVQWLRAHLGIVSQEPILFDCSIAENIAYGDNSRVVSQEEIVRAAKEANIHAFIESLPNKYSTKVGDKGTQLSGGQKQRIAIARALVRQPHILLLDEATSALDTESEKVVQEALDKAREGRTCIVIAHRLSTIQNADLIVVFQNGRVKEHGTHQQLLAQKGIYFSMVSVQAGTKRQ

SMILES	IC50 at 72 h ([1]; LCC6 cells) [µM]	RF (Relative Fold), cpd at 0.5 μM (Pgp (LCC6MDR cells))	IC50 at 72 h ([2]; LCC6MDR cells) [µM]	IC50 at 72 h ([3]; L929 fibroblast cells) [µM]	RF (Relative Fold), cpd at 1 μM (Pgp (LCC6MDR cells))	EC50 (Pgp (LCC6MDR cells); Paclitaxel) [nM]	Therapeutic index (Pgp (LCC6MDR cells))	also measured
COc1cc(-c2cc(=O)c3ccccc3o2)ccc1OCCOCCNCCOCCOc1ccc(-c2cc(=O)c3ccccc3o2)cc1OC [Compound 12b, 1,13-Bis[4′-((4H-chromen-4-on-2-yl)-3′-methoxyphenyl)]-1,4,10,13-tetraoxa-7-azamidecane]	12.8 ± 1.1	(0.8)	23.8 ± 12.8					
Cc1ccc2oc(-c3ccc(OCCOCCNCCOCCOc4ccc(-c5cc(=O)c6cc(C)ccc6o5)cc4)cc3)cc(=O)c2c1 [Compound 12c, 1,13-Bis[4′-((6-methyl)-4H-chromen-4-on-2-yl)phenyl]-1,4,10,13-tetraoxa-7-azamidecane]	7.5 ± 0.9	(13.9)	7 ± 1.4	6 ± 0.6				
COc1cccc2oc(-c3ccc(OCCOCCNCCOCCOc4ccc(-c5cc(=O)c6c(OC)cccc6o5)cc4)cc3)cc(=O)c12 [Compound 12d, 1,13-Bis[4′-((5-methoxy)-4H-chromen-4-on-2-yl)phenyl]-1,4,10,13-tetraoxa-7-azamidecane]	8.8 ± 2.7	(1.2)	10.2 ± 3.8					
O=c1c(OCc2ccccc2)c(-c2ccc(OCCOCCNCCOCCOc3ccc(-c4oc5ccccc5c(=O)c4OCc4ccccc4)cc3)cc2)oc2ccccc12 [Compound 12e, 1,13-Bis[4′-((3-benzyloxy)-4H-chromen-4-on-2-yl)phenyl]-1,4,10,13-tetraoxa-7-azamidecane]	4.3 ± 0.5	(54.7)	4.4 ± 0.1	4.2				
O=c1cc(-c2ccc(OCCOCCNCCOCCOc3ccc(-c4cc(=O)c5cc(F)ccc5o4)cc3)cc2)oc2ccc(F)cc12 [Compound 12f, 1,13-Bis[4′-((6-fluoro)-4H-chromen-4-on-2-yl)phenyl]-1,4,10,13-tetraoxa-7-azamidecane]	5.3 ± 1	(72.9)	3.3 ± 0.5	5.7 ± 0.4	(109.4)			
COc1cc(-c2cc(=O)c3ccccc3o2)ccc1OCCOCCN(CCOCCOc1ccc(-c2cc(=O)c3ccccc3o2)cc1OC)C(=O)OC(C)(C)C [Compound 16b, 1,13-Bis[4′-((4H-chromen-4-on-2-yl)-3′-methoxyphenyl)]-7-(tert-butylformyl)-1,4,10,13-tetraoxa-7-azamidecane]	8.3 ± 1.4	(8.7)	6.9 ± 2.9	33.3				
C[C@H](N)C(=O)N(CCOCCOc1ccc(-c2cc(=O)c3ccccc3o2)cc1)CCOCCOc1ccc(-c2cc(=O)c3ccccc3o2)cc1 [Compound 23b, 1,13-Bis[4′-(4H-chromen-4-on-2-yl)phenyl]-7-[(S)-2-amino-1-oxopropyl]-1,4,10,13-tetraoxa-7-azamidecane]	4.4	(1.0)	4.6 ± 0.2					
O=C(c1ccccc1)N(CCOCCOc1ccc(-c2cc(=O)c3ccccc3o2)cc1)CCOCCOc1ccc(-c2cc(=O)c3ccccc3o2)cc1 [Compound 23d, 1,13-Bis[4′-(4H-chromen-4-on-2-yl)phenyl]-7-(benzoyl)-1,4,10,13-tetraoxa-7-azamidecane]	> 100	(7.5)	> 100	95				
CC(C)(C)CC(=O)N(CCOCCOc1ccc(-c2cc(=O)c3ccccc3o2)cc1)CCOCCOc1ccc(-c2cc(=O)c3ccccc3o2)cc1 [Compound 33, 1,13-Bis[4′-(4H-chromen-4-on-2-yl)phenyl]-7-(tert-butylacetyl)-1,4,10,13-tetraoxa-7-azamidecane]	> 100	(18.9)	> 100	> 100				
O=c1cc(-c2ccc(OCCOCCN(CCOCCOc3ccc(-c4cc(=O)c5ccccc5o4)cc3)Cc3ccc(C(F)(F)F)cc3)cc2)oc2ccccc12 [Compound 35, 1,13-Bis[4′-(4H-chromen-4-on-2-yl)phenyl]-7-(4-trifluoromethylbenzyl)-1,4,10,13-tetraoxa-7-azamidecane]	> 100	(37.3)	> 100	32.7		150	218.0	
O=c1cc(-c2ccc(OCCOCCN(CCOCCOc3ccc(-c4cc(=O)c5ccccc5o4)cc3)Cc3ccc(F)cc3F)cc2)oc2ccccc12 [Compound 40, 1,13-Bis[4′-(4H-chromen-4-on-2-yl)phenyl]-7-(2,4-difluorobenzyl)-1,4,10,13-tetraoxa-7-azamidecane]	> 100	(32.6)	> 100	> 100	(117.8)	246 ± 66	>406.5	
O=c1cc(-c2ccc(OCCOCCN(CCOCCOc3ccc(-c4cc(=O)c5ccccc5o4)cc3)Cc3c(F)cccc3F)cc2)oc2ccccc12 [Compound 41, 1,13-Bis[4′-(4H-chromen-4-on-2-yl)phenyl]-7-(2,6-difluorobenzyl)-1,4,10,13-tetraoxa-7-azamidecane]	> 100	(34.0)	> 100	> 100	(90.1)	237 ± 91	>421.9	
COc1ccc(CN(CCOCCOc2ccc(-c3cc(=O)c4ccccc4o3)cc2)CCOCCOc2ccc(-c3cc(=O)c4ccccc4o3)cc2)cc1 [Compound 42a, 1,13-Bis[4′-(4H-chromen-4-on-2-yl)phenyl]-7-(4-methoxybenzyl)-1,4,10,13-tetraoxa-7-azamidecane]	> 91	(61.2)	> 100	> 100	(117.8)	104 ± 7	>961.5	EC50 (Pgp (LCC6MDR cells); Daunorubicin): 61 ± 6 nM; EC50 (Pgp (LCC6MDR cells); Doxorubicin): 63 ± 8 nM; EC50 (Pgp (LCC6MDR cells); Mitoxantrone): 96 ± 27 nM; EC50 (Pgp (LCC6MDR cells); Vinblasinte, vinblastine): 94 ± 13 nM; EC50 (Pgp (LCC6MDR cells); Vincristine): 98 ± 5 nM
O=c1cc(-c2ccc(OCCOCCN(CCOCCOc3ccc(-c4cc(=O)c5ccccc5o4)cc3)Cc3ccc(OC(F)(F)F)cc3)cc2)oc2ccccc12 [Compound 42b, 1,13-Bis[4′-(4H-chromen-4-on-2-yl)phenyl]-7-(4-trifluoromethoxybenzyl)-1,4,10,13-tetraoxa-7-azamidecane]	> 100	(3.8)	> 100	> 83	(47.8)			
CC(=O)Oc1ccc(CN(CCOCCOc2ccc(-c3cc(=O)c4ccccc4o3)cc2)CCOCCOc2ccc(-c3cc(=O)c4ccccc4o3)cc2)cc1 [Compound 42c, 1,13-Bis[4′-(4H-chromen-4-on-2-yl)phenyl]-7-(4-acetyloxybenzyl)-1,4,10,13-tetraoxa-7-azamidecane]	6.6 ± 1	(95.7)	5.9 ± 0.7	4.5 ± 0.1	(117.8)	140 ± 12	32.1	
O=c1cc(-c2ccc(OCCOCCN(CCOCCOc3ccc(-c4cc(=O)c5ccccc5o4)cc3)Cc3ccc(O)cc3)cc2)oc2ccccc12 [Compound 42d, 1,13-Bis[4′-(4H-chromen-4-on-2-yl)phenyl]-7-(4-hydroxybenzyl)-1,4,10,13-tetraoxa-7-azamidecane]	5.4 ± 0.6	(117.8)	5.3 ± 0.7	4.8 ± 0.3	(117.8)	141 ± 9	34.0	
O=c1cc(-c2ccc(OCCOCCN(CCOCCOc3ccc(-c4cc(=O)c5ccccc5o4)cc3)Cc3cc4c(cc3Cl)OCO4)cc2)oc2ccccc12 [Compound 42f, 1,13-Bis[4′-(4H-chromen-4-on-2-yl)phenyl]-7-[5-(6-chloropiperonyl)]-1,4,10,13-tetraoxa-7-azamidecane]	> 100	(4.8)	> 100	> 100	(80.6)			
COc1cccc(CN(CCOCCOc2ccc(-c3cc(=O)c4ccccc4o3)cc2)CCOCCOc2ccc(-c3cc(=O)c4ccccc4o3)cc2)c1 [Compound 43, 1,13-Bis[4′-(4H-chromen-4-on-2-yl)phenyl]-7-(3-methoxybenzyl)-1,4,10,13-tetraoxa-7-azamidecane]	> 100	(22.5)	> 100	> 100	(95.7)			
C/C=C/C[C@@H](C)C(=O)[C@H]1C(=O)N[C@@H](C(C)C)C(=O)N(C)CC(=O)N(C)[C@@H](CC(C)C)C(=O)N[C@@H](C(C)C)C(=O)N(C)[C@@H](CC(C)C)C(=O)N[C@@H](C)C(=O)N[C@H](C)C(=O)N(C)[C@@H](CC(C)C)C(=O)N(C)[C@@H](CC(C)C)C(=O)N(C)[C@@H](C(C)C)C(=O)N1C [PSC833, reference compound]								IC50 at 72 h [1]: 25.3 ± 4.3 µM; IC50 at 72 h [3]: > 100 µM; IC50 at 72 h [2]: 14.6 ± 2.2 µM
